pKi: −log10 of the molar value.
Each molecule was assayed against GST-tagged-Wee1 kinase (Homo sapiens, UniProt P30291) (assay: Wee1 time-resolved fluorescence equilibrium binding assay (displacement of Oregon Green-labeled ATP-competitive kinase probe)).
Sequence of GST-tagged-Wee1 kinase (P30291 whole entry): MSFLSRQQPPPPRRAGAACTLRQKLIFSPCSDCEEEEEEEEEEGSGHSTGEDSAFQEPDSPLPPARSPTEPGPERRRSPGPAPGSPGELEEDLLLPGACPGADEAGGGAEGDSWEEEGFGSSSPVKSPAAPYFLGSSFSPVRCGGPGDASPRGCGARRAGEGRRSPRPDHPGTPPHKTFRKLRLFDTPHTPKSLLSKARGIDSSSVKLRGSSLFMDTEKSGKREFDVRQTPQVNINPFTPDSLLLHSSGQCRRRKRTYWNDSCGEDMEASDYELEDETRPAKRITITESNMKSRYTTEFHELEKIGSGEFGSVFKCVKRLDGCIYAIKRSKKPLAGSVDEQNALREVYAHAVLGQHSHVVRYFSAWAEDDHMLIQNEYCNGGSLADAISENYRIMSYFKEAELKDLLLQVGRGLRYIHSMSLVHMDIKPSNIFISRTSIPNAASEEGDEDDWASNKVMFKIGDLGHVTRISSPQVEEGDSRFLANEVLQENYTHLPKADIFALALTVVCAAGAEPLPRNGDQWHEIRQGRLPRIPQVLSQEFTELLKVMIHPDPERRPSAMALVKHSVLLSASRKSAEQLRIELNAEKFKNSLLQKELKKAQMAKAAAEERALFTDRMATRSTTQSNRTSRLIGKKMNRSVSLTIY
Experimental: Wee1 kinase was assayed using a time-resolved fluorescence equilibrium binding assay monitoring displacement of a rapidly reversible Oregon Green-labeled ATP-competitive kinase probe (N-(2-(2-(2-(4-(4-(5-chloro-4-(2-(1-hydroxycyclobutyl)thiazol-5-yl)-1H-pyrrolo[2,3-b]pyridin-2-yl)phenyl)piperazin-1-yl)ethoxy)ethoxy)ethyl)-2′,7′-difluoro-3′,6′-dihydroxy-3-oxo-3H-spiro[isobenzofuran-1,9′-xanthene]-5-carboxamide) by competitive Wee1 inhibitors.
`CNCCn1ccc(-c2nn(-c3c(Cl)cccc3Cl)c(=O)c3cnc(Nc4ccc(N5CCN(C)CC5)cc4)nc23)n1` [Example 261, 6-(2,6-dichlorophenyl)-8-{1-[2-(methylamino)ethyl]-1H-pyrazol-3-yl}-2-{[4-(4-methylpiperazin-1-yl)phenyl]amino}pyrimido[4,5-d]pyridazin-5(6H)-one] was tested, and the pKi was 9.52.
`Cc1nn(-c2c(Cl)cccc2Cl)c(=O)c2cnc(Nc3cccc(C(=O)N4CCN(CCO)CC4)c3)nc12` [Example 527, 6-(2,6-dichlorophenyl)-2-[(3-{[4-(2-hydroxyethyl)piperazin-1-yl]carbonyl}phenyl)amino]-8-methylpyrimido[4,5-d]pyridazin-5(6H)-one] showed a pKi of 8.55.
`Cc1cc(Nc2ncc3c(=O)n(-c4ccccc4Cl)nc(-c4ccccc4)c3n2)ccc1N1CCN(C(C)C)CC1` [Example 205, 6-(2-chlorophenyl)-2-({3-methyl-4-[4-(propan-2-yl)piperazin-1-yl]phenyl}amino)-8-phenylpyrimido[4,5-d]pyridazin-5(6H)-one] was tested, and the pKi was 9.70.
`Cc1nn(-c2c(Cl)cccc2Cl)c(=O)c2cnc(Nc3cccc(N4CCCCC4)c3)nc12` [Example 504, 6-(2,6-dichlorophenyl)-8-methyl-2-{[3-(piperidin-1-yl)phenyl]amino}pyrimido[4,5-d]pyridazin-5(6H)-one] gave a pKi of 8.43.
Molecule `O=c1c2cnc(Nc3ccc(N4CCNCC4)cc3)nc2c(C2CCC2)nn1-c1c(Cl)cccc1Cl` [Example 279, 8-cyclobutyl-6-(2,6-dichlorophenyl)-2-{[4-(piperazin-1-yl)phenyl]amino}pyrimido[4,5-d]pyridazin-5(6H)-one] has a pKi of 8.92.
`CN1CCN(c2ccc(Nc3ncc4c(=O)n(-c5c(Cl)cccc5Cl)nc(-c5cccc(O)n5)c4n3)cc2)CC1` [Example 88, 6-(2,6-dichlorophenyl)-8-(6-hydroxypyridin-2-yl)-2-{[4-(4-methylpiperazin-1-yl)phenyl]amino}pyrimido[4,5-d]pyridazin-5(6H)-one] gave a pKi of 8.30.
For `Cc1nn(-c2c(Cl)cccc2Cl)c(=O)c2cnc(Nc3ccc4c(c3)CCN(C)C4)nc12` [Example 435, 6-(2,6-dichlorophenyl)-8-methyl-2-[(2-methyl-1,2,3,4-tetrahydroisoquinolin-6-yl)amino]pyrimido[4,5-d]pyridazin-5(6H)-one], the pKi was 9.34.
Molecule `O=c1c2cnc(Nc3ccc(N4CCNCC4)cc3)nc2c(-c2nccs2)nn1-c1ncccc1Cl` [Example 347, 6-(3-chloropyridin-2-yl)-2-{[4-(piperazin-1-yl)phenyl]amino}-8-(1,3-thiazol-2-yl)pyrimido[4,5-d]pyridazin-5(6H)-one] has a pKi of 8.19.
Work on `CN1CCN(c2ccc(Nc3ncc4c(=O)n(-c5ccncc5Cl)nc(-c5ccccn5)c4n3)cc2)CC1` [Example 384, 6-(3-chloropyridin-4-yl)-2-{[4-(4-methylpiperazin-1-yl)phenyl]amino}-8-(pyridin-2-yl)pyrimido[4,5-d]pyridazin-5(6H)-one] yielded a pKi of 7.89.
Work on `Cc1cccc(Cl)c1-n1nc(C)c2nc(Nc3ccc(OC4CCN(C)CC4)cc3)ncc2c1=O` [Example 502, 6-(2-chloro-6-methylphenyl)-8-methyl-2-({4-[(1-methylpiperidin-4-yl)oxy]phenyl}amino)pyrimido[4,5-d]pyridazin-5(6H)-one] yielded a pKi of 9.44.
In the case of `CN1CCN(c2ccc(Nc3ncc4c(=O)n(-c5ccccc5Cl)nc(-c5ccsc5)c4n3)cc2)CC1` [Example 96, 6-(2-chlorophenyl)-2-{[4-(4-methylpiperazin-1-yl)phenyl]amino}-8-(3-thienyl)pyrimido[4,5-d]pyridazin-5(6H)-one], the pKi was 9.70.
For `CC1(C)CNCc2cc(Nc3ncc4c(=O)n(C5CCNCC5)nc(-c5ccccn5)c4n3)ccc21` [Example 305, 2-[(4,4-dimethyl-1,2,3,4-tetrahydroisoquinolin-7-yl)amino]-6-(piperidin-4-yl)-8-(pyridin-2-yl)pyrimido[4,5-d]pyridazin-5(6H)-one], the pKi was 6.08.
`Cc1ccccc1-n1nc(-c2ccccc2)c2nc(Nc3ccc(N4CCCC4=O)cc3)ncc2c1=O` [Example 141, 6-(2-methylphenyl)-2-{[4-(2-oxopyrrolidin-1-yl)phenyl]amino}-8-phenylpyrimido[4,5-d]pyridazin-5(6H)-one] gave a pKi of 8.15.
Molecule `Cc1nn(-c2c(Cl)cccc2Cl)c(=O)c2cnc(Nc3ccc4c(c3)CCN(S(C)(=O)=O)C4)nc12` [Example 450, 6-(2,6-dichlorophenyl)-8-methyl-2-{[2-(methylsulfonyl)-1,2,3,4-tetrahydroisoquinolin-6-yl]amino}pyrimido[4,5-d]pyridazin-5(6H)-one] has a pKi of 9.21.
For `CN1CCN(c2ccc(Nc3ncc4c(=O)n(-c5c(Cl)cccc5Cl)nc(-c5cnn(CCCl)c5)c4n3)cc2)CC1` [Example 200, 8-[1-(2-chloroethyl)-1H-pyrazol-4-yl]-6-(2,6-dichlorophenyl)-2-{[4-(4-methylpiperazin-1-yl)phenyl]amino}pyrimido[4,5-d]pyridazin-5(6H)-one], the pKi was 9.52.
With `Cc1cc(Nc2ncc3c(=O)n(-c4ccccc4C)nc(-c4ccccc4)c3n2)ccc1N1CCN(C(C)C)CC1` [Example 170, 2-{[4-(4-isopropylpiperazin-1-yl)-3-methylphenyl]amino}-6-(2-methylphenyl)-8-phenylpyrimido[4,5-d]pyridazin-5(6H)-one] the pKi was 9.15.
For `CC(C)N1CCN(c2ccc(Nc3ncc4c(=O)n(-c5ccccc5Cl)nc(-c5ccccc5)c4n3)cc2)CC1` [Example 131, 6-(2-chlorophenyl)-2-{[4-(4-isopropylpiperazin-1-yl)phenyl]amino}-8-phenylpyrimido[4,5-d]pyridazin-5(6H)-one], the pKi was 9.30.
For `CCc1nn(-c2c(Cl)cccc2Cl)c(=O)c2cnc(Nc3ccc4c(c3)CNCC4(C)C)nc12` [Example 462, 6-(2,6-dichlorophenyl)-2-[(4,4-dimethyl-1,2,3,4-tetrahydroisoquinolin-7-yl)amino]-8-ethylpyrimido[4,5-d]pyridazin-5(6H)-one], the pKi was 9.02.
`CNCc1cccc(-c2nn(-c3c(Cl)cccc3Cl)c(=O)c3cnc(Nc4ccc(N5CCN(C)CC5)cc4)nc23)c1` [Example 183, 6-(2,6-dichlorophenyl)-8-{3-[(methylamino)methyl]phenyl}-2-{[4-(4-methylpiperazin-1-yl)phenyl]amino}pyrimido[4,5-d]pyridazin-5(6H)-one] was tested, and the pKi was 10.70.
With `CS(=O)(=O)N1Cc2cc(Nc3ncc4c(=O)n(-c5c(Cl)cccc5Cl)nc(-c5ccncc5)c4n3)ccc2C2(CC2)C1` [Example 381, 6-(2,6-dichlorophenyl)-2-{[2′-(methylsulfonyl)-2′,3′-dihydro-1′H-spiro[cyclopropane-1,4′-isoquinolin]-7′-yl]amino}-8-(pyridin-4-yl)pyrimido[4,5-d]pyridazin-5(6H)-one] the pKi was 9.09.
For `CN1CCN(c2ccc(Nc3ncc4c(=O)n(-c5ccccc5Cl)nc(CCc5ccccc5)c4n3)cc2)CC1` [Example 24, 6-(2-chlorophenyl)-2-{[4-(4-methylpiperazin-1-yl)phenyl]amino}-8-(2-phenylethyl)pyrimido[4,5-d]pyridazin-5(6H)-one], the pKi was 8.70.
`C=CCn1nc(C2CCCC2)c2nc(Nc3ccc(N4CCN(C)CC4)cc3)ncc2c1=O` [Example 15, 6-allyl-8-cyclopentyl-2-{[4-(4-methylpiperazin-1-yl)phenyl]amino}pyrimido[4,5-d]pyridazin-5(6H)-one] showed a pKi of 6.60.
`Cc1ccccc1-n1nc(-c2cccc(N3CCCC3)n2)c2nc(Nc3ccc(N4CCN(C)CC4)cc3)ncc2c1=O` [Example 182, 6-(2-methylphenyl)-2-{[4-(4-methylpiperazin-1-yl)phenyl]amino}-8-[6-(pyrrolidin-1-yl)pyridin-2-yl]pyrimido[4,5-d]pyridazin-5(6H)-one] showed a pKi of 7.92.
With `CN1CCN(c2ccc(Nc3ncc4c(=O)n(-c5c(Cl)cccc5Cl)nc(-c5ccc(C(=O)NC6CCC6)cc5)c4n3)cc2)CC1` [Example 292, N-cyclobutyl-4-[6-(2,6-dichlorophenyl)-2-{[4-(4-methylpiperazin-1-yl)phenyl]amino}-5-oxo-5,6-dihydropyrimido[4,5-d]pyridazin-8-yl]benzamide] the pKi was 9.32.
With `CN1CCN(c2ccc(Nc3ncc4c(=O)n(-c5cnccc5O)nc(-c5ccccn5)c4n3)cc2)CC1` [Example 310, 6-(4-hydroxypyridin-3-yl)-2-{[4-(4-methylpiperazin-1-yl)phenyl]amino}-8-(pyridin-2-yl)pyrimido[4,5-d]pyridazin-5(6H)-one] the pKi was 8.44.
For `CC(C)n1cc(-c2nn(-c3c(Cl)cccc3Cl)c(=O)c3cnc(Nc4ccc5c(c4)CNCC54CC4)nc23)cn1` [Example 337, 6-(2,6-dichlorophenyl)-2-(2′,3′-dihydro-1′H-spiro[cyclopropane-1,4′-isoquinolin]-7′-ylamino)-8-[1-(propan-2-yl)-1H-pyrazol-4-yl]pyrimido[4,5-d]pyridazin-5(6H)-one], the pKi was 9.66.
`C=CCn1nc(CCC)c2nc(Nc3ccc(N4CCN(C)CC4)cc3)ncc2c1=O` [Example 16, 6-allyl-2-{[4-(4-methylpiperazin-1-yl)phenyl]amino}-8-propylpyrimido[4,5-d]pyridazin-5(6H)-one] gave a pKi of 6.89.
Work on `Cc1cccc(Cl)c1-n1nc(C)c2nc(Nc3ccc4c(c3)CNCC4(C)C)ncc2c1=O` [Example 497, 6-(2-chloro-6-methylphenyl)-2-[(4,4-dimethyl-1,2,3,4-tetrahydroisoquinolin-7-yl)amino]-8-methylpyrimido[4,5-d]pyridazin-5(6H)-one] yielded a pKi of 9.59.
`CN1CCN(c2ccc(Nc3ncc4c(=O)n(-c5c(F)cccc5Cl)nc(-c5ccncc5)c4n3)cc2)CC1` [Example 296, 6-(2-chloro-6-fluorophenyl)-2-{[4-(4-methylpiperazin-1-yl)phenyl]amino}-8-(pyridin-4-yl)pyrimido[4,5-d]pyridazin-5(6H)-one] gave a pKi of 9.57.
`Cc1cccc(Cl)c1-n1nc(C)c2nc(Nc3ccc4c(c3)CCNC4)ncc2c1=O` [Example 496, 6-(2-chloro-6-methylphenyl)-8-methyl-2-(1,2,3,4-tetrahydroisoquinolin-6-ylamino)pyrimido[4,5-d]pyridazin-5(6H)-one] was tested, and the pKi was 9.47.

From patent publication US8796289B2 (AbbVie Inc., priority 2011, dated 2014)
